# Patent US8735410B2, “Quinazoline derivatives as tyrosine kinase inhibitors” (AstraZeneca AB, priority 2005, dated 2014)
# Tested on: KB cells (human tumour cell line ATCC CCL-17)
# Experiment: EGFR driven KB cell proliferation assay (Test b)
# Format: cell-based
# Settings: geometric mean of n tests, EGF driven proliferation of KB cells
# Protocol: b) EGFR Driven KB Cell Proliferation Assay
# This assay measures the ability of a test compound to inhibit the proliferation of KB cells (human tumour cell line ATCC CCL-17).
# KB cells were cultured in Dulbecco's modified Eagle's medium (DMEM) containing 10% foetal calf serum, 2 mM glutamine and 1% non-essential amino acids at 37° C. in a 7.5% CO2 air incubator. Cells were harvested from the stock flasks using Trypsin/ethylaminediaminetetraacetic acid (EDTA). Cell density was measured using a haemocytometer and viability was calculated using trypan blue solution before being seeded at a density of 1.25×10^3 cells per well of a 96 well plate in DMEM containing 2.5% charcoal stripped serum, 1 mM glutamine and 1% non-essential amino acids at 37° C. in 7.5% CO2 and allowed to settle for 4 hours.
# Following adhesion to the plate, the cells are treated with or without EGF (final concentration of 1 ng/ml) and with or without compound at a range of concentrations in dimethylsulfoxide (DMSO) (0.1% final) before incubation for 4 days. Following the incubation period, cell numbers were determined by addition of 50 μl of 3-(4,5-Dimethylthiazol-2-yl)-2,5-diphenyltetrazolium bromide (MTT) (stock 5 mg/ml) for 2 hours. MTT solution was then tipped off, the plate gently tapped dry and the cells dissolved upon the addition of 100 μl of DMSO.
# Absorbance of the solubilised cells was read at 540 nm using a Molecular Devices ThermoMax microplate reader. Inhibition of proliferation was expressed as an IC50 value. This was determined by calculation of the concentration of compound that was required to give 50% inhibition of EGF driven proliferation. The range of proliferation was calculated from the positive (vehicle plus EGF) and negative (vehicle minus EGF) control values. The IC50 value obtained from basal cell growth gives a measure of selectivity.
row,IC50 [nM],Compound
1,56,"COc1cc2ncnc(Nc3cccc(Cl)c3F)c2cc1O[C@H]1CCN(C)[C@H](C(N)=O)C1 [Example 1, (2S,4S)-4-({4-[(3-chloro-2-fluorophenyl)amino]-7-methoxyquinazolin-6-yl}oxy)-1-methylpiperidine-2-carboxamide]"
2,61,"CNC(=O)[C@@H]1C[C@@H](Oc2cc3c(Nc4cccc(Cl)c4F)ncnc3cc2OC)CCN1C [Example 2, (2S,4S)-4-({4-[(3-chloro-2-fluorophenyl)amino]-7-methoxyquinazolin-6-yl}oxy)-N,1-dimethylpiperidine-2-carboxamide]"
3,23,"CNC(=O)[C@H]1C[C@H](Oc2cc3c(Nc4cccc(Cl)c4F)ncnc3cc2OC)CCN1C [Example 3, (2R,4R)-4-({4-[(3-chloro-2-fluorophenyl)amino]-7-methoxyquinazolin-6-yl}oxy)-N,1-dimethylpiperidine-2-carboxamide]"
